Laboratory results: US20070092551A1, “Therapeutic agent” (TAKARA BIO INC., priority 2003, published 2007)

How the values were obtained:
3T3-L1 cells = assay: Induction of adipocyte differentiation (amount of triglyceride biosynthesis); assay type: cell-based; details: Mus musculus, 3T3-L1, X=(S−N)/(P−N) of amount of triglyceride, P=insulin positive control, read-out: Action for Induction of Differentiation
Procedure: Induction of adipocyte differentiation was carried out by partially modifying the above-mentioned method of Rubin C. S. et al. In addition, as a test compound, a compound prepared in Examples mentioned above or a commercially available compound was used. 3T3-L1 cells (ATCC CCL-92.1) were suspended in a 10% fetal bovine serum (manufactured by Bio Whittaker)-containing Dulbecco's modified Eagle's medium (manufactured by Sigma, D6046) containing 200 μM ascorbic acid so as to have a density of 4×10^3 cells/mL, and the suspension was put in each well of a 12-well microtiter plate in an amount of 2 ml per well. The cells were cultured at 37° C. for 7 days in the presence of 5% carbon dioxide gas. On the seventh day, the medium was exchanged with a 10% fetal bovine serum (manufactured by Bio Whittaker)-containing Dulbecco's modified Eagle's medium containing 200 μM ascorbic acid and 0.25 μM dexamethasone, and a test compound dissolved in dimethyl sulfoxide in a concentration shown in each of Tables 16 to 19 was added to each well. Here, there were set a group with addition of 4 μL of an aqueous solution containing 5 mg/mL insulin (manufactured by TAKARA BIO INC.) as a positive control, and a group with addition of dimethyl sulfoxide as a negative control. After 45 hours, the medium was exchanged with a 10% fetal bovine serum-containing Dulbecco's modified Eagle's medium containing 200 μM ascorbic acid. A test compound, 2 μL of an aqueous solution containing 5 mg/mL insulin as a positive control, or dimethyl sulfoxide as a negative control was put to each well in the same concentration. The cells were cultured for additional 7 days. In addition, the medium was exchanged on after 2 days and after 5 days, and at that time, a test compound, 2 μL of an aqueous solution containing 5 mg/mL insulin as a positive control, or dimethyl sulfoxide as a negative control was put to each well in the same concentration.
The amount of triglyceride in the adipocytes was determined as an index of induction of differentiation into mature adipocytes, and also, as the evaluation of insulin-mimetic action.
After the termination of the culture, the medium was removed, and the cells were washed twice with a phosphate buffered saline. One milliliter of a solvent of hexane:isopropanol=3:2 was added to the cells. The mixture was allowed to stand at room temperature for 30 minutes, and thereafter the supernatant was collected. The procedures were repeated again, and 2 mL of the supernatant was concentrated to dryness. The precipitate was dissolved in 100 μL of isopropanol, and the amount of triglyceride contained in 10 μL of the solution was determined using a triglyceride E-test (manufactured by Wako Pure Chemical Industries, Ltd., code 432-40201). In addition, all the determinations were carried out twice. The action for induction of differentiation was calculated by the following calculation formula, and shown by four ranks of +++, ++, + and +/−. • S: Amount of triglyceride in the presence of a test compound; • N: Amount of triglyceride in the negative control; and • P: Amount of triglyceride in the positive control; X=(S−N)/(P−N) (Judgment of Action for Induction of Differentiation)

[1] = system: mature adipocytes (3T3-L1 cells); assay: Enhancing action on glucose uptake (2-deoxyglucose) into mature adipocytes; assay type: cell-based; details: Mus musculus, 3T3-L1, X=(S−N)/(P−N) of 2-deoxyglucose uptake, P=insulin 1 μg/mL, read-out: Enhancing Action on Glucose Uptake
Procedure: The induction of differentation into nature adipocytes was carried out by partially modifying the above-mentioned method of Rubin C. S. et al. 3T3-L1 cells (ATCC CCL-92.1) were suspended in a 10% fetal bovine serum (manufactured by Bio Whittaker)-containing Dulbecco's modified Eagle's medium (manufactured by Sigma, D6046) containing 200 μM ascorbic acid so as to have a density of 4×10^3 cells/mL, and the suspension was put in each well of a collagen type I-coated 12-well plate (Iwaki Glass Co., Ltd., code 4815-010) in an amount of 2 mL per well. The cells were cultured at 37° C. for 7 days in the presence of 5% carbon dioxide gas. On the seventh day, the medium was exchanged with 2 mL of a 10% fetal bovine serum (manufactured by Bio Whittaker)-containing Dulbecco's modified Eagle's medium containing 200 μM ascorbic acid, 0.25 μM dexamethasone, 10 μg/mL insulin (manufactured by TAKARA BIO INC.) and 0.5 mM 3-isobutyl-1-methylxanthine (manufactured by nacalai tesque, 19624-86). After 45 hours, the medium was exchanged with 2 mL of a 10% fetal bovine serum-containing Dulbecco's modified Eagle's medium containing 200 μM ascorbic acid and 5 μg/mL insulin. The medium was exchanged on after 2 days and 5 days, and the cells were cultured for 7 days, to give mature adipocytes.
As the evaluation of the enhancing action on glucose uptake, and also as the evaluation of the insulin-mimetic action, the amount of 2-deoxyglucose uptake into mature adipocytes during the stimulation of the test compound in the adipocytes was determined. As a test compound, a compound prepared in the Examples mentioned above or a commercially available compound was used.
After the termination of the culture, the medium was removed, and the cells were washed twice with a 0.1% (w/v) bovine serum albumin (manufactured by Sigma, A8022)-containing Dulbecco's modified Eagle's medium. Thereafter, 1 mL of the same medium containing a test compound in a concentration shown in each of Tables 20 to 23 was put to each well. The cells were cultured overnight at 37° C. in the presence of 5% carbon dioxide gas. Here, a group without containing the test compound was set as a negative control. After the overnight culture, the cells were washed twice with a HEPES buffer (140 mM NaCl, 5 mM KCl, 2.5 mM MgSO4, 1 mM CaCl2, 20 mM HEPES-Na (pH 7.4)). The amount 0.9 mL of the buffer containing a test compound in the same concentration was added to each well. The cells were cultured at 37° C. for 75 minutes. During the culture, as a positive control, there was set a group with addition of insulin to the well without addition of a test compound at a point 45 minutes passed so as to have a final concentration of 1 μg/mL. Thereafter, 100 μL of a HEPES buffer containing 0.5 μCi/mL 2-deoxy-[1,2-^3H(N)]-glucose (manufactured by PerkinElmer Life Sciences Inc., NET549A) and 1 mM 2-deoxyglucose (manufactured by nacalai tesque, 10722-11) was added thereto. The cells were cultured at 37° C. for additional 10 minutes. After the termination of the culture, the supernatant was removed, and the cells were washed three times with a phosphate buffer cooled to 4° C. Thereafter, 0.5 mL of a 1% Nonidet P-40-containing phosphate buffer was added to lyse the cells, whereby 2-deoxy-[1,2-^3H(N)]-glucose subjected to uptake into the cells was eluted. The radioactivity was determined with a liquid scintillation counter LS6500 (manufactured by Beckmann) using 25 μL of the supernatant with Ultima Gold (manufactured by PerkinElmer Life Sciences Inc., 6013329) as a scintillation cocktail. The enhancing action on glucose uptake was calculated by the following calculation formula, and shown by four ranks of +++, ++, + and +/−. • S: Amount of 2-deoxyglucose uptake in the presence of a test compound; • N: Amount of 2-deoxyglucose uptake in the negative control; and • P: Amount of 2-deoxyglucose uptake in the positive control; X=(S−N)/(P−N) (Judgment of Enhancing Action for 2-Deoxyglucose Uptake)

| SMILES | activation at 3 µM (3T3-L1 cells) | activation at 10 µM (3T3-L1 cells) | activation at 30 µM (3T3-L1 cells) | activation at 10 µM [1] | activation at 30 µM [1] | activation at 3 µM [1] | activation at 1 µM (3T3-L1 cells) |
| --- | --- | --- | --- | --- | --- | --- | --- |
| CC(=O)c1ccc(OCC=C(C)C)cc1C [Compound (C059), 2′-methyl-4′-prenyloxyacetophenone] | 15 to 30% | 30 to 60% | > 100% | 15 to 30% | 30 to 60% | – | – |
| CC(C)=CCc1c(O)ccc(C(=O)/C=C/c2ccc(O)cc2)c1O [Isobavachalcone] | 30 to 60% | 60 to 100% | – | 60 to 100% | > 100% | 15 to 30% | – |
| COc1ccc(C(=O)/C=C/c2ccc(Cl)cc2)c(OC(C)=O)c1C/C=C(\C)CCC=C(C)C [Compound (C080), 4-chloro-2′-acetoxy-3′-geranyl-4′-methoxychalcone] | > 100% | > 100% | – | 30 to 60% | 60 to 100% | – | 60 to 100% |
| CC(C)=CCCC(C)(O)C1Cc2c(ccc(C(=O)/C=C/c3ccc(O)cc3)c2O)O1 (stereo not shown) [TB3, 1-[2,3-dihydro-4-hydroxy-2-(1-hydroxy-1,5-dimethyl-4-hexenyl)-benzofuran-5-yl]-3-(4-hydroxyphenyl)-2-propen-1-one] | > 100% | > 100% | – | > 100% | – | 30 to 60% | – |
| CCOc1ccc(C(=O)/C=C/c2ccc(O)cc2)c(O)c1CC=C(C)C [Compound (C049), 4,2′-dihydroxy-3′-prenyl-4′-ethoxychalcone] | 15 to 30% | 15 to 30% | – | 30 to 60% | > 100% | – | – |
| COc1ccc(C(=O)CCc2ccc(O)cc2)c(O)c1CCC(C)C [Compound (C033), 1-(2-hydroxy-3-(3-methylbutyl)-4-methoxyphenyl)-3-(4-hydroxyphenyl)-propan-1-one] | > 100% | > 100% | – | 30 to 60% | 60 to 100% | 30 to 60% | – |
| COc1ccc(C(C)=O)c(O)c1Cc1ccccc1 [Compound (C055), 2′-hydroxy-3′-benzyl-4′-methoxyacetophenone] | 15 to 30% | 30 to 60% | – | 30 to 60% | 60 to 100% | 15 to 30% | – |
| CC(C)=CCc1c(O)ccc(C(=O)/C=C/c2ccc(Cl)cc2)c1O [Compound (C075), 4-chloro-2′,4′-dihydroxy-3′-prenylchalcone] | 15 to 30% | 30 to 60% | – | 15 to 30% | 30 to 60% | – | – |
| COc1ccc(C(=O)/C=C/c2ccc(OC(C)=O)cc2)c(O)c1CC=C(C)C [Compound (C078), 4-acetoxy-2′-hydroxy-3′-prenyl-4′-methoxychalcone] | – | 30 to 60% | > 100% | 15 to 30% | > 100% | – | – |
| COc1ccc(C(=O)/C=C/c2ccco2)c(O)c1CC=C(C)C [Compound (FUR-1), 3-(2-furyl)-1-(2-hydroxy-3-prenyl-4-methoxyphenyl)-2-propen-1-one] | 30 to 60% | > 100% | – | 15 to 30% | 60 to 100% | – | 15 to 30% |
| COc1ccc(C(C)=O)c(O)c1C/C=C(\C)CCC=C(C)C [Compound (C038), 2′-hydroxy-3′-geranyl-4′-methoxyacetophenone] | 30 to 60% | > 100% | – | 30 to 60% | 60 to 100% | – | – |
| COc1ccc(C(=O)/C=C/c2ccc(O)cc2)c(OCc2ccccc2)c1CC=C(C)C [Compound (C077), 4-hydroxy-2′-benzyloxy-3′-prenyl-4′-methoxychalcone] | 30 to 60% | – | – | 30 to 60% | 30 to 60% | – | – |
| CC(=O)Oc1ccc(/C=C/C(=O)c2ccc(OC(C)=O)c(C/C=C(\C)CCC=C(C)C)c2OC(C)=O)cc1 [Compound (C061), 4,2′,4′-triacetoxy-3′-geranylchalcone] | 60 to 100% | > 100% | – | – | 30 to 60% | – | – |
| CCOc1ccc(C(C)=O)c(O)c1CC=C(C)C [Compound (C047), 2′-hydroxy-3′-prenyl-4′-ethoxyacetophenone] | – | 30 to 60% | 60 to 100% | 60 to 100% | > 100% | 30 to 60% | – |
